Data reported in patent US20010006794A1, “SCREENING FOR MODULATORS OF BIOMOLECULES” (priority 1995, published 2001).

Experiments:
[1] = system: Salmonella typhimurium temperature sensitive mutant gyrA212 (strain 7533); format: cell-based
Excerpt: A Salmonella typhimurium parent strain 7389 was used to form a collection of temperature sensitive mutants. […] Complementation of the mutant phenotype was done. In the case of the three mutants described in the data of this figure (gyrA202, gyrA208, gyrA212) the complemented mutants were identified to be in the A subunit of the bacterial DNA gyrase enzyme. Each mutant was altered in a different portion (see number of mutant) of the A subunit. […] The data are expressed as fold increases in susceptibility. A four-fold increase in susceptibility is the minimum change to be considered significant in this example.
Referring to FIG. 1, the experiments were essentially by the methods outlined by the National Committee for Clinical Laboratory Standards (NCCLS). Bacteria were grown in Mueller-Hinton (MH) broth with agitation at 30° C.
The antibiotic dilution ranges used were:
Novobiocin: Range 128-0 μg/ml. Coumermycin A1: Range 128-0 μg/ml. […] Norfloxacin: Range 8-0 μg/ml. Mitomycin C: Range 8-0 μg/ml Phenylmercuric acetate: Range 32-0 μg/ml. 4-Nitroquinoline Oxide: Range 32-0 μM Rifampicin: Range 128-0 μg/ml. Gentamicin: Range 32-0 μg/ml. Streptomycin: Range 128-0 μg/ml. Cefotaxime: Range 8-0 μg/ml. Ampicillin: Range 32-0 μg/ml. Phosphonomycin (or fosfomycin): Range 128-0 μg/ml. […]

[2] = system: Salmonella typhimurium wild type; format: cell-based
Procedure: Preliminary characterization of the utilization of large numbers of carbon sources can be carried out using manual or automated taxonomic screening devices, such as the Biolog MT, ES, GN or GP Microplate™. Alternatively, this can be performed using commercially available components. […] Briefly, strains were swabbed onto TSA plates and grown at a permissive temperature of 30° C. for 6 hours to provide an inoculum. The inoculum (MacFarland standard ˜1 in 0.89% sterile saline solution) was prepared as per Biolog “Instructions for Use” handbook, with the exception that leucine was added to correct for mutants housed in strains which were in a leucine-deficient background. Inoculum was added to Biolog GN or ES plates and incubated at the semipermissive temperature of 35° C. overnight (˜21 hr). Carbon source utilization is read colorimetrically in a microplate reader at 600 nm. Substrates that are not used similarly by wild-type and mutant are identified. […] Typically, these steps were performed using Biolog MT plates or by using a redox indicator (such as tetrazolium violet, 0.0001%) in a minimal medium with a sole carbon source (substrate being tested), supplemented with a small amount of tryptone (0.06%) or proteose peptone (0.2%). It was possible to do this in 96-well microtiter plate format, which will be adaptable to high throughput or multichannel screening.

[3] = wild type with sub-MIC levels of antibiotic
[4] = wild type with sub-MIC levels of antibiotic, Biolog GN plates, 35° C.

For `CCn1cc(C(=O)O)c(=O)c2cc(F)c(N3CCNCC3)cc21` [norfloxacin], the “fold increase in susceptibility” value [1] was 8 fold.
With `Cn1nnnc1SCC1=C(C(=O)O)N2C(=O)[C@@H](NC(=O)[C@H](O)c3ccccc3)[C@H]2SC1` [cefamandole] the “utilization of D-alanine or D-serine as carbon source markers” value ([2]; wild type strain, sub-MICs of cell wall synthesis inhibitor) was “affected” and the “overlap of carbon source utilization phenotype with the gyraseA/ciprofloxacin induced phenotype” value [2, 3] was 40%.
`O=C(N[C@H](CO)[C@H](O)c1ccc([N+](=O)[O-])cc1)C(Cl)Cl` [chloramphenicol] was tested, and the “overlap of carbon source utilization phenotype with the gyraseA/ciprofloxacin induced phenotype” value [2, 3] was 40%.
`O=C(O)c1cn(C2CC2)c2cc(N3CCNCC3)c(F)cc2c1=O` [ciprofloxacin] was tested, and the “carbon source utilization phenotype compared with one of the gyraseA mutant alleles” value [2, 4] was “reproduces the phenotype of one of the mutant alleles perfectly” and the “overlap of carbon source utilization phenotype with the other two gyraseA mutant alleles” value [2, 4] was 46-71%.
`CO[C@@H]1[C@@H](OC(N)=O)[C@@H](O)[C@H](Oc2ccc3c(O)c(NC(=O)c4ccc(O)c(CC=C(C)C)c4)c(=O)oc3c2C)OC1(C)C` [novobiocin] was tested, and the “carbon source utilization phenotype compared with gyraseA mutants and the ciprofloxacin induced phenotype” value [2, 3] was “very similar phenotype”.
